Here are results for ten molecules from patent US6815448B2, “Azaheterocyclylmethyl derivatives of 7,8-dihydro-1,6,9-trioxa-3-aza-cyclopenta[a]naphthalene as 5-HT1A antagonists” (Wyeth, priority 2001, dated 2004).

Where a name gives a salt, the structure may show the parent alone. Read-outs that look alike come from different tables or passages of the source.

One may read the melting point as the temperature, or range, at which the solid turns liquid. Usually Ki stands for the equilibrium dissociation constant of an inhibitor or competing ligand from its target. What is called IC50 is the concentration that inhibits the measured activity by half.

For one data set, the target named is T1, human 5-HT1A receptors (Homo sapiens, UniProt P08908).
T1 construct: expressed in transfected cells; host or cells: CHO cells
T1 sequence (P08908 1-422): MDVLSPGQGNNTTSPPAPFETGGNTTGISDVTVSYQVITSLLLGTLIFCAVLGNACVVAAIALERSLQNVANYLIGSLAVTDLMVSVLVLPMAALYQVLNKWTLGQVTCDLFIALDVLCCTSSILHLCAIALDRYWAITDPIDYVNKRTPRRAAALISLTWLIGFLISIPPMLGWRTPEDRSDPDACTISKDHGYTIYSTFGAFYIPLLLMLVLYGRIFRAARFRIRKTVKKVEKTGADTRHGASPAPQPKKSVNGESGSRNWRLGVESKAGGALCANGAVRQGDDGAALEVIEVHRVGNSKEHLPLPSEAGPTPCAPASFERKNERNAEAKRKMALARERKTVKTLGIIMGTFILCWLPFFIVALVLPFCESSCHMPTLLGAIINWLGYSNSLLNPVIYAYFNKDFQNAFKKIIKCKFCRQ
The experiment in a line: [3H] 8-OH-DPAT displacement from 5-HT1A receptor. In kind it is binding. As to conditions: CHO cells stably transfected with human 5-HT1A receptors, read-out: 5-HT1A Receptor Affinity KI. From the text:
High affinity for the serotonin 5-HT1A receptor was established by testing the claimed compound's ability to displace [^3H] 8-OH-DPAT (dipropylaminotetralin) from the 5-HT1A serotonin receptor following a modification of the procedure of Hall et al. J. Neurochem. 44, 1685 (1985) which utilizes CHO cells stably transfected with human 5-HT1A receptors.

In data set [1] the target is T2, cloned human 5-HT1A receptors (Homo sapiens, UniProt P08908).
T2 construct: expressed in transfected cells
T2 sequence (P08908 1-422): T1 sequence (P08908 1-422)
The experiment in a line: 35S-GTPγS binding assay, reversal of the standard agonist 8-OH-DPAT. In kind it is biochemical. The settings on record: for 5-HT1A Function Imax (maximum inhibitory effect): value in parentheses. Here is the method: Antagonist activity at 5-HT1A receptors was established by using a ^35S-GTPγS binding assay similar to that used by Lazareno and Birdsall (Br. J. Pharmacol. 109: 1120, 1993), in which the test compound's ability to affect the binding of ^35S-GTPγS to membranes containing cloned human 5-HT1A receptors was determined. Agonists produce an increase in binding whereas antagonists produce no increase but rather reverse the effects of the standard agonist 8-OH-DPAT. The test compound's maximum inhibitory effect is represented as the Imax, while its potency is defined by the IC50.

Where [2] appears, read: 35S-GTPγS binding, membranes with cloned human 5-HT1A receptors, antagonist potency, read-out: 5-HT1A Function IC50.

In turn, `Cc1nc2ccc3c(c2o1)OC(CN1CCC2(CC1)C(=O)NCN2c1ccccc1)CO3` (centres unmarked) (as salt: fumarate) [Example 1, 8-(2-Methyl-7,8-dihydro-1,6,9-trioxa-3-aza-cyclopenta[a]naphthalen-8-ylmethyl)-1-phenyl-1,3,8triazaspiro[4.5]decan-4-one] showed a melting point of 240 °C.
Take `Cc1nc2ccc3c(c2o1)O[C@@H](CN1CC=C(c2cccc(C(F)(F)F)c2)CC1)CO3` [Example 5]: the Ki on human 5-HT1A receptors came out at 39.4 nM. For the same molecule, the IC50 in data set [1] (setting [2]) was found to be 798 nM. The “5-HT1A Function Imax (maximum inhibitory effect)” value in data set [1] (35S-GTPγS binding) is 97.0.
`Cc1nc2ccc3c(c2o1)OC(CN1CCCCC1)CO3` (centres unmarked) (as salt: fumarate) [Example 6, 2-Methyl-8-(piperidin-1-ylmethyl)-7,8-dihydro-1,6,9-trioxa-3-aza-cyclopenta[a]naphthalene]: the melting point fell in the range of 109 to 112 °C.
Take `Cc1nc2ccc3c(c2o1)OC(CN1CCCCC1)CO3` (centres unmarked) [Example 6, 2-Methyl-8-(piperidin-1-ylmethyl)-7,8-dihydro-1,6,9-trioxa-3-aza-cyclopenta[a]naphthalene]: the Ki at human 5-HT1A receptors was 173 nM.
For `Cc1nc2ccc3c(c2o1)O[C@@H](CN1CC=C(c2cccc(C(F)(F)F)c2)CC1)CO3` (as salt: fumarate) [Example 5], the melting point was in the range of 170 to 173 °C.
Take `Cc1nc2ccc3c(c2o1)OC(CN1CCC(n2c(=O)[nH]c4ccccc42)CC1)CO3` (centres unmarked) [Example 2, 1-[1-(2-Methyl-7,8-dihydro-1,6,9-trioxa-3-aza-cyclopenta[a]naphthalen-8-ylmethyl)-piperidin-4-yl]-1,3-dihydro-2H-benzimidazol-2-one]: the melting point fell in the range of 218 to 220 °C. The inhibitory constant (Ki) on human 5-HT1A receptors worked out at 1 nM. Moreover, in data set [1], the 50% inhibitory concentration (IC50) is 2.7 nM. Moreover, in data set [1] (35S-GTPγS binding), the “5-HT1A Function Imax (maximum inhibitory effect)” value amounted to 42.0.
For `Cc1nc2ccc3c(c2o1)OC(CN1CCC(O)(c2cccc(C(F)(F)F)c2)CC1)CO3` (centres unmarked) [Example 3, 1-(2-Methyl-7,8-dihydro-1,6,9-trioxa-3-aza-cyclopenta[a]naphthalen-8-ylmethyl)-4-[3-(trifluoromethyl)phenyl]-4-piperidinol], in that order: 148 to 151 °C, 6.52 nM, 47 nM and 47.0 (47.0).
On to `Cc1nc2ccc3c(c2o1)OC(CN1CCC2(CC1)C(=O)NCN2c1ccccc1)CO3` (centres unmarked) [Example 1, 8-(2-Methyl-7,8-dihydro-1,6,9-trioxa-3-aza-cyclopenta[a]naphthalen-8-ylmethyl)-1-phenyl-1,3,8triazaspiro[4.5]decan-4-one], for which the Ki on human 5-HT1A receptors is 0.93 nM. For the same molecule, the IC50 in data set [1] (setting [2]) stood at 1050 nM. Also, in data set [1] (35S-GTPγS binding), the “5-HT1A Function Imax (maximum inhibitory effect)” value turned out to be 60.0.
Regarding `Cc1nc2ccc3c(c2o1)OC(CN1CCC(C(=O)c2ccc(F)cc2)CC1)CO3` (centres unmarked) [Example 4, (4-Fluorophenyl) (1-[2-methyl-7,8-dihydro-1,6,9-trioxa-3-aza-cyclopenta[a]naphthalen-8-ylmethyl]-4-piperidinyl)methanone], the inhibition constant Ki on human 5-HT1A receptors is 202 nM.
`Cc1nc2ccc3c(c2o1)OC(CN1CCC(C(=O)c2ccc(F)cc2)CC1)CO3` (centres unmarked) (as salt: fumarate) [Example 4, (4-Fluorophenyl) (1-[2-methyl-7,8-dihydro-1,6,9-trioxa-3-aza-cyclopenta[a]naphthalen-8-ylmethyl]-4-piperidinyl)methanone] returned a melting point of 229 to 230 °C.
